Measured values as given in article PMC10819888, “Benzimidazole-Based Derivatives as Apoptotic Antiproliferative Agents: Design, Synthesis, Docking, and Mechanistic Studies” (Molecules, 2024).

Legend:
Type in all cases: cell-based, human
CCRF-CEM = test: NCI-60 five-dose assay; details: CCRF-CEM (Leukemia), 48 h
HOP-62 = test: NCI-60 five-dose assay; details: HOP-62 (Non-Small Cell Lung Cancer), 48 h
HOP-92 = test: NCI-60 five-dose assay; details: HOP-92 (Non-Small Cell Lung Cancer), 48 h
NCI-H226 = test: NCI-60 five-dose assay; details: NCI-H226 (Non-Small Cell Lung Cancer), 48 h
NCI-H322M = test: NCI-60 five-dose assay; details: NCI-H322M (Non-Small Cell Lung Cancer), 48 h
NCI-H460 = test: NCI-60 five-dose assay; details: NCI-H460 (Non-Small Cell Lung Cancer), 48 h
NCI-H522 = test: NCI-60 five-dose assay; details: NCI-H522 (Non-Small Cell Lung Cancer), 48 h
COLO 205 = test: NCI-60 five-dose assay; details: COLO 205 (Colon Cancer), 48 h
HT29 = test: NCI-60 five-dose assay; details: HT29 (Colon Cancer), 48 h
SF-539 = test: NCI-60 five-dose assay; details: SF-539 (CNS Cancer), 48 h
SNB-19 = test: NCI-60 five-dose assay; details: SNB-19 (CNS Cancer), 48 h
LOX IMVI = test: NCI-60 five-dose assay; details: LOX IMVI (Melanoma), 48 h
MALME-3M = test: NCI-60 five-dose assay; details: MALME-3M (Melanoma), 48 h
MDA-MB-435 = test: NCI-60 five-dose assay; details: MDA-MB-435 (Melanoma), 48 h
UACC-257 = test: NCI-60 five-dose assay; details: UACC-257 (Melanoma), 48 h
UACC-62 = test: NCI-60 five-dose assay; details: UACC-62 (Melanoma), 48 h
NCI/ADR-RES = test: NCI-60 five-dose assay; details: NCI/ADR-RES (Ovarian Cancer), 48 h
TK-10 = test: NCI-60 five-dose assay; details: TK-10 (Renal Cancer), 48 h
BT-549 = test: NCI-60 five-dose assay; details: BT-549 (Breast Cancer), 48 h
T-47D = test: NCI-60 five-dose assay; details: T-47D (Breast Cancer), 48 h
Leukemia subpanel = test: NCI-60 five-dose assay, subpanel; details: Homo sapiens; Leukemia; average sensitivity of all subpanel cell lines; read-out: GI50 Subpanel MID b
Colon Cancer subpanel = test: NCI-60 five-dose assay, subpanel
CNS Cancer subpanel = test: NCI-60 five-dose assay, subpanel
Prostate Cancer subpanel = test: NCI-60 five-dose assay, subpanel
Breast Cancer subpanel = test: NCI-60 five-dose assay, subpanel
[1] = Homo sapiens, read-out: GI50 Conc. per Cell Line
[2] = Homo sapiens, read-out: LC50 (the source's name)

## O=C(NN=Cc1ccc([N+](=O)[O-])cc1)c1ccc2[nH]c(-c3ccc(Cl)cc3)nc2c1 [Compound 4c, N′-(4-Nitrobenzylidene)-2-(4-chlorophenyl)-1H-benzimidazole-5-carbohydrazide]
CCRF-CEM
  TGI: 17.70 µM
CCRF-CEM; [1]
  GI50: 0.591 µM
CCRF-CEM; [2]
  CC50: > 100 µM
HOP-62
  TGI: 30.80 µM
HOP-62; [1]
  GI50: 6.42 µM
HOP-62; [2]
  CC50: > 100 µM
HOP-92
  TGI: 7.52 µM
HOP-92; [1]
  GI50: 0.985 µM
NCI-H226; [1]
  GI50: 5.03 µM
NCI-H226; [2]
  CC50: > 100 µM
NCI-H226
  TGI: 31.20 µM
NCI-H322M; [1]
  GI50: 5.04 µM
NCI-H322M; [2]
  CC50: > 100 µM
NCI-H322M
  TGI: 26.40 µM
NCI-H460; [1]
  GI50: 2.1 µM
NCI-H460
  TGI: 4.49 µM
NCI-H522; [1]
  GI50: 3.05 µM
NCI-H522; [2]
  CC50: > 100 µM
NCI-H522
  TGI: 11.70 µM
COLO 205
  TGI: 3.76 µM
COLO 205; [1]
  GI50: 1.46 µM
HT29
  TGI: >100 µM
HT29; Homo sapiens, HT-29, read-out: GI50 Conc. per Cell Line
  GI50: 3.02 µM
HT29; Homo sapiens, HT-29, read-out: LC50 (the source's name)
  CC50: > 100 µM
SF-539; [1]
  GI50: 2.73 µM
SF-539; [2]
  CC50: 33.8 µM
SF-539
  TGI: 10.10 µM
SNB-19; [1]
  GI50: 7.48 µM
SNB-19; [2]
  CC50: > 100 µM
SNB-19
  TGI: 32.40 µM
LOX IMVI; [1]
  GI50: 1.34 µM
LOX IMVI; [2]
  CC50: 7.74 µM
LOX IMVI
  TGI: 3.22 µM
MALME-3M; [1]
  GI50: 1.48 µM
MALME-3M
  TGI: 5.00 µM
MDA-MB-435; [1]
  GI50: 3.57 µM
MDA-MB-435; [2]
  CC50: 47.6 µM
MDA-MB-435
  TGI: 12.20 µM
UACC-257; [1]
  GI50: 3.37 µM
UACC-257; [2]
  CC50: > 100 µM
UACC-257
  TGI: 15.40 µM
UACC-62; [1]
  GI50: 3.51 µM
UACC-62; [2]
  CC50: 52.2 µM
UACC-62
  TGI: 14.90 µM
NCI/ADR-RES; [1]
  GI50: 12.6 µM
NCI/ADR-RES; [2]
  CC50: > 100 µM
NCI/ADR-RES
  TGI: >100 µM
TK-10; [1]
  GI50: 8.99 µM
TK-10; [2]
  CC50: > 100 µM
TK-10
  TGI: 40.23 µM
BT-549
  TGI: 9.70 µM
BT-549; [1]
  GI50: 2.84 µM
BT-549; [2]
  CC50: 50.5 µM
T-47D; Homo sapiens, T47D, read-out: GI50 Conc. per Cell Line
  GI50: 2.29 µM
T-47D; Homo sapiens, T47D, read-out: LC50 (the source's name)
  CC50: > 100 µM
T-47D
  TGI: 7.21 µM
Leukemia subpanel
  GI50: 0.55 µM
Colon Cancer subpanel; Colon Cancer subpanel
  GI50 Selectivity Ratio (MID a/MID b): 1.30
Colon Cancer subpanel; Homo sapiens, Colon Cancer, average sensitivity of all subpanel cell lines, read-out: GI50 Subpanel MID b
  GI50: 2.53 µM
CNS Cancer subpanel; CNS Cancer subpanel
  GI50 Selectivity Ratio (MID a/MID b): 0.81
CNS Cancer subpanel; Homo sapiens, CNS Cancer, average sensitivity of all subpanel cell lines, read-out: GI50 Subpanel MID b
  GI50: 4.05 µM
Prostate Cancer subpanel; Homo sapiens, Prostate Cancer, average sensitivity of all subpanel cell lines, read-out: GI50 Subpanel MID b
  GI50: 2.2 µM
Prostate Cancer subpanel; Prostate Cancer subpanel
  GI50 Selectivity Ratio (MID a/MID b): 1.49
Breast Cancer subpanel; Breast Cancer subpanel
  GI50 Selectivity Ratio (MID a/MID b): 1.31
Breast Cancer subpanel; Homo sapiens, Breast Cancer, average sensitivity of all subpanel cell lines, read-out: GI50 Subpanel MID b
  GI50: 2.5 µM
